Key:
[1] = target: T1, HCV polymerase (NS5B) type 1a (Hepatitis C virus genotype 1a, UniProt P26664); test: Assay of enzyme (HCV polymerase) inhibitory activity, type 1a enzyme; assay type: biochemical, HCV type 1a (cloned from the blood of patients); conditions: HCV polymerase inhibitory activity IC50, 1a, type 1a enzyme
T1 construct: made in house; host or cells: Escherichia coli (by the 'similar method' of the 1b enzyme)
Outline: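 IC50 values derive from radioactivity of newly synthesized RNA with versus without test compound. The enzyme was C-terminally truncated type 1a NS5B, 1.5 μg/ml, run 60 min at 25° C with 3H-UTP-labelled nucleotides.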

[2] = target: T2, HCV polymerase (NS5B) type 1b (Hepatitis C virus genotype 1b, UniProt P26663); test: Assay of enzyme (HCV polymerase) inhibitory activity, type 1b enzyme; assay type: biochemical, HCV BK strain (type 1b); conditions: HCV polymerase inhibitory activity IC50, 1b, type 1b enzyme
T2 construct: a region encoding NS5B (J Virol 1991 March, 65(3), 1105-13, 544 amino acids after deletion of 47 amino acids on the C-terminal); 6xHis (C); made in house; host or cells: Escherichia coli
Outline: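 Polymerase activity was followed as radiolabelled UTP incorporation by E. coli-expressed, His-tagged NS5B of HCV type 1b lacking its last 47 residues. Conditions: 2 μM UTP, 50 μM other NTPs, Mg2+ buffer at pH 7.5, 25 °C for 60 min. Inhibition relative to compound-free reactions gave IC50.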

O=C(NCc1ccc(OC(F)F)cc1F)[C@H]1CN(c2nc3nc(Cl)ncc3s2)CCN1S(=O)(=O)c1ccc(OC(F)(F)F)cc1 [Example 997, (R)-4-(5-chloro-thiazolo[4,5-d]pyrimidin-2-yl)-1-(4-trifluoromethoxy-benzenesulfonyl)-piperazine-2-carboxylic acid 4-difluoromethoxy-2-fluoro-benzylamide]
IC50 [1]: < 100 nM | IC50 [2]: < 100 nM

O=C(NCc1ccc(OC(F)F)cc1F)[C@H]1CN(c2nc3ncncc3s2)CCN1S(=O)(=O)c1ccc(OC(F)(F)F)cc1 [Example 998, (R)-4-thiazolo[4,5-d]pyrimidin-2-yl-1-(4-trifluoromethoxy-benzenesulfonyl)-piperazine-2-carboxylic acid 4-difluoromethoxy-2-fluoro-benzylamide]
IC50 [1]: < 100 nM | IC50 [2]: < 100 nM

O=C(NCc1ccc(OC(F)(F)F)cc1)[C@H]1CN(c2nc3nc(C(F)(F)F)ncc3s2)CCN1S(=O)(=O)c1ccc(OC(F)F)cc1 [Example 999, (R)-1-(4-difluoromethoxy-benzenesulfonyl)-4-(5-trifluoromethyl-thiazolo[4,5-d]pyrimidin-2-yl)-piperazine-2-carboxylic acid 4-trifluoromethoxy-benzylamide]
IC50 [1]: < 100 nM | IC50 [2]: < 100 nM

O=C(NCc1ccc(OC(F)F)cc1)[C@H]1CN(c2nc3nc(C(F)(F)F)ncc3s2)CCN1S(=O)(=O)c1ccc(OC(F)(F)F)cc1 [Example 1000, (R)-1-(4-trifluoromethoxy-benzenesulfonyl)-4-(5-trifluoromethyl-thiazolo[4,5-d]pyrimidin-2-yl)-piperazine-2-carboxylic acid 4-difluoromethoxy-benzylamide]
IC50 [1]: < 100 nM | IC50 [2]: < 100 nM

O=C(NCc1ccc(OC(F)F)cc1)[C@H]1CN(c2nc3nc(C(F)(F)F)ncc3s2)CCN1S(=O)(=O)c1ccc(C(F)(F)F)cc1 [Example 1001, (R)-1-(4-trifluoromethyl-benzenesulfonyl)-4-(5-trifluoromethyl-thiazolo[4,5-d]pyrimidin-2-yl)-piperazine-2-carboxylic acid 4-difluoromethoxy-benzylamide]
IC50 [1]: < 100 nM | IC50 [2]: < 100 nM

O=C(NCc1ccc(OC(F)(F)F)cc1)[C@H]1CN(c2nc3nnnc(NCCO)c3s2)CCN1S(=O)(=O)c1ccc(OC(F)(F)F)cc1 [Example 1002, (R)-4-[4-(2-hydroxy-ethylamino)-thiazolo[4,5-d][1,2,3]triazin-6-yl]-1-(4-trifluoromethoxy-benzenesulfonyl)-piperazine-2-carboxylic acid 4-trifluoromethoxy-benzylamide]
IC50 [1]: < 100 nM | IC50 [2]: < 100 nM

O=C(NCc1ccc(OC(F)(F)F)cc1)[C@H]1CN(c2nc3nc(C(F)(F)F)[nH]c(=O)c3s2)CCN1S(=O)(=O)c1ccc(OC(F)(F)F)cc1 [Example 1003, (R)-4-(7-oxo-5-trifluoromethyl-6,7-dihydro-thiazolo[4,5-d]pyrimidin-2-yl)-1-(4-trifluoromethoxy-benzenesulfonyl)-piperazine-2-carboxylic acid 4-trifluoromethoxy-benzylamide]
IC50 [1]: < 100 nM | IC50 [2]: < 100 nM

O=C(NCc1ccc(OC(F)(F)F)cc1)[C@H]1CN(c2nc3nc(C(F)(F)F)ncc3s2)CCN1S(=O)(=O)c1ccc(OC(F)(F)C(F)F)cc1 [Example 1004, (R)-1-[4-(1,1,2,2-tetrafluoro-ethoxy)-benzenesulfonyl]-4-(5-trifluoromethyl-thiazolo[4,5-d]pyrimidin-2-yl)-piperazine-2-carboxylic acid 4-trifluoromethoxy-benzylamide]
IC50 [1]: < 100 nM | IC50 [2]: < 100 nM

O=C(NCc1ccc(OC(F)F)cc1)[C@H]1CN(c2nc3nc(C(F)(F)F)ncc3s2)CCN1S(=O)(=O)c1ccc(OC(F)F)cc1 [Example 1005, (R)-1-(4-difluoromethoxy-benzenesulfonyl)-4-(5-trifluoromethyl-thiazolo[4,5-d]pyrimidin-2-yl)-piperazine-2-carboxylic acid 4-difluoromethoxy-benzylamide]
IC50 [1]: < 100 nM | IC50 [2]: < 100 nM

O=C(NCc1ccc(OC(F)(F)F)cc1)[C@H]1CN(c2nc3nnncc3s2)CCN1S(=O)(=O)c1ccc(C(F)(F)F)cc1 [Example 1006, (R)-4-thiazolo[4,5-d][1,2,3]triazin-6-yl-1-(4-trifluoromethyl-benzenesulfonyl)-piperazine-2-carboxylic acid 4-trifluoromethoxy-benzylamide]
IC50 [1]: < 100 nM | IC50 [2]: < 100 nM

CCOC(=O)c1ncc2sc(N3CCN(S(=O)(=O)c4ccc(OC(F)(F)F)cc4)[C@@H](C(=O)NCc4ccc(OC(F)(F)F)cc4)C3)nc2n1 [Example 1007, 2-[(R)-4-(4-trifluoromethoxy-benzenesulfonyl)-3-(4-trifluoromethoxy-benzylcarbamoyl)-piperazin-1-yl]-thiazolo[4,5-d]pyrimidine-5-carboxylic acid ethyl ester]
IC50 [1]: < 100 nM | IC50 [2]: < 100 nM

O=C(NCc1ccc(OC(F)(F)F)cc1)[C@H]1CN(c2nc3nc(CO)ncc3s2)CCN1S(=O)(=O)c1ccc(OC(F)(F)F)cc1 [Example 1008, (R)-4-(5-hydroxymethyl-thiazolo[4,5-d]pyrimidin-2-yl)-1-(4-trifluoromethoxy-benzenesulfonyl)-piperazine-2-carboxylic acid 4-trifluoromethoxy-benzylamide]
IC50 [1]: < 100 nM | IC50 [2]: < 100 nM

COc1nncc2sc(N3CCN(S(=O)(=O)c4ccc(OC(F)(F)F)cc4)[C@@H](C(=O)NCc4ccc(OC(F)(F)F)cc4)C3)nc12 [Example 1009, (R)-4-(4-methoxy-thiazolo[4,5-d]pyridazin-2-yl)-1-(4-trifluoromethoxy-benzenesulfonyl)-piperazine-2-carboxylic acid 4-trifluoromethoxy-benzylamide]
IC50 [1]: < 100 nM | IC50 [2]: < 100 nM

N#Cc1ncc2sc(N3CCN(S(=O)(=O)c4ccc(C(F)(F)F)cc4)[C@@H](C(=O)NCc4ccc(OC(F)(F)F)cc4)C3)nc2n1 [Example 1010, (R)-4-(5-cyano-thiazolo[4,5-d]pyrimidin-2-yl)-1-(4-trifluoromethyl-benzenesulfonyl)-piperazine-2-carboxylic acid 4-trifluoromethoxy-benzylamide]
IC50 [1]: < 100 nM | IC50 [2]: < 100 nM

N#Cc1ncc2sc(N3CCN(S(=O)(=O)c4ccc(C(F)(F)F)cc4)[C@@H](C(=O)NCc4ccc(OC(F)F)cc4)C3)nc2n1 [Example 1011, (R)-4-(5-cyano-thiazolo[4,5-d]pyrimidin-2-yl)-1-(4-trifluoromethyl-benzenesulfonyl)-piperazine-2-carboxylic acid 4-difluoromethoxy-benzylamide]
IC50 [1]: < 100 nM | IC50 [2]: < 100 nM

O=C(NCc1ccc(OC(F)(F)F)cc1)[C@H]1CN(c2nc3nc(CC4CC4)ncc3s2)CCN1S(=O)(=O)c1ccc(C(F)(F)F)cc1 [Example 1012, (R)-4-(5-cyclopropylmethyl-thiazolo[4,5-d]pyrimidin-2-yl)-1-(4-trifluoromethyl-benzenesulfonyl)-piperazine-2-carboxylic acid 4-trifluoromethoxy-benzylamide]
IC50 [1]: < 100 nM | IC50 [2]: < 100 nM

NC(=O)c1ncc2sc(N3CCN(S(=O)(=O)c4ccc(C(F)(F)F)cc4)[C@@H](C(=O)NCc4ccc(OC(F)(F)F)cc4)C3)nc2n1 [Example 1013, 2-[(R)-3-(4-trifluoromethoxy-benzylcarbamoyl)-4-(4-trifluoromethyl-benzenesulfonyl)-piperazin-1-yl]-thiazolo[4,5-d]pyrimidine-5-carboxylic acid amide]
IC50 [1]: < 100 nM | IC50 [2]: < 100 nM

O=C(NCc1ccc(OC(F)F)cc1)[C@H]1CN(c2nc3nc(C4CC4)ncc3s2)CCN1S(=O)(=O)c1ccc(OC(F)F)cc1 [Example 1014, (R)-4-(5-cyclopropyl-thiazolo[4,5-d]pyrimidin-2-yl)-1-(4-difluoromethoxy-benzenesulfonyl)-piperazine-2-carboxylic acid 4-difluoromethoxy-benzylamide]
IC50 [1]: < 100 nM | IC50 [2]: < 100 nM

O=C(NCc1ccc(OC(F)F)cc1)[C@H]1CN(c2nc3nc(C(F)(F)F)ncc3s2)CCN1S(=O)(=O)c1ccc(OC(F)(F)C(F)F)cc1 [Example 1015, (R)-1-[4-(1,1,2,2-tetrafluoro-ethoxy)-benzenesulfonyl]-4-(5-trifluoromethyl-thiazolo[4,5-d]pyrimidin-2-yl)-piperazine-2-carboxylic acid 4-difluoromethoxy-benzylamide]
IC50 [1]: < 100 nM | IC50 [2]: < 100 nM

O=C(NCc1ccc(OC(F)(F)F)cc1)[C@H]1CN(c2nc3nc(C4CC4)ncc3s2)CCN1S(=O)(=O)c1ccc(OC(F)F)cc1 [Example 1016, (R)-4-(5-cyclopropyl-thiazolo[4,5-d]pyrimidin-2-yl)-1-(4-difluoromethoxy-benzenesulfonyl)-piperazine-2-carboxylic acid 4-trifluoromethoxy-benzylamide]
IC50 [1]: < 100 nM | IC50 [2]: < 100 nM

O=C(NCc1ccc(OC(F)F)cc1)[C@H]1CN(c2nc3nc(C4CC4)ncc3s2)CCN1S(=O)(=O)c1ccc(OC(F)(F)F)cc1 [Example 1017, (R)-4-(5-cyclopropyl-thiazolo[4,5-d]pyrimidin-2-yl)-1-(4-trifluoromethoxy-benzenesulfonyl)-piperazine-2-carboxylic acid 4-difluoromethoxy-benzylamide]
IC50 [1]: < 100 nM | IC50 [2]: < 100 nM
